In ChEMBL document CHEMBL1141611, “Truncation and non-natural amino acid substitution studies on HTLV-I protease hexapeptidic inhibitors” (Bioorg Med Chem Lett, 2008):
*1 amine or outer side, *2 acyl side, *3 side chain or, on linkers, in order; H or OH if unused. Where a SMILES comes first, the peptide text is derived from it. [ ]: non-standard residue; d: D form. X1 = O=C([C@@H](O)[C@H](Cc1ccccc1)N[*:1])[*:2]; Thz(5,5-Me2) = CC1(C)SCN[C@@H]1C(=O)O

Assays:
Gag-Pro polyprotein = Gag-Pro polyprotein (Human T-cell leukemia virus 1 (strain Japan ATK-1 subtype A) (HTLV-1), UniProt P10274, L40I); test: Inhibition of HTLV1 protease L40I mutant expressed in Escherichia coli BL21(DE3)pLysS; parameters: species or system Human T-cell leukemia virus type I
[1] = target: Protease (Human immunodeficiency virus 1) (UniProt Q9YQ12); test: Inhibition of HIV1 protease at 50 nM
Sequence of Protease (Human immunodeficiency virus 1) (Q9YQ12 as listed by the source): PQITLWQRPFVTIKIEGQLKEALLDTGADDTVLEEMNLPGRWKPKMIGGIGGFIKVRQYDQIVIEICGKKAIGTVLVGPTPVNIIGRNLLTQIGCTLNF

Sequence of Gag-Pro polyprotein (P10274 450-574 L489I): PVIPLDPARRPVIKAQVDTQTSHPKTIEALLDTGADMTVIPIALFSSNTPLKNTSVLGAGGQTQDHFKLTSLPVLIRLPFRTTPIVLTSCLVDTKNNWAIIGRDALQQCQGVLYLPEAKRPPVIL

| Compound | IC50 (Gag-Pro polyprotein) | inhibition [1] |
| --- | --- | --- |
| CC[C@H](C)[C@H](NC(C)=O)C(=O)N[C@H](C(=O)N[C@@H](Cc1ccccc1)[C@H](O)C(=O)N1CSC(C)(C)[C@@H]1C(=O)N[C@H](C(=O)N[C@@H](CCSC)C(N)=O)[C@@H](C)CC)[C@@H](C)CC | 88 nM | 98% |
| CC[C@H](C)[C@H](NC(=O)[C@@H]1N(C(=O)[C@@H](O)[C@H](Cc2ccccc2)NC(=O)[C@@H](NC(=O)[C@@H](NC(C)=O)c2ccccc2)C(C)(C)C)CSC1(C)C)C(N)=O | 144 nM | 93% |
| CSCC[C@H](NC(=O)[C@@H](NC(=O)[C@@H]1CCCN1C(=O)[C@@H](O)[C@H](Cc1ccccc1)NC(=O)[C@@H](NC(=O)[C@H](CCC(N)=O)NC(=O)[C@@H]1CCCN1)C(C)C)C(C)C)C(=O)N[C@@H](Cc1cnc[nH]1)C(=O)O (H-PQV[X1]PVMH-OH) | 159 nM | < 30% |
| CC[C@H](C)[C@H](NC(=O)[C@@H]1N(C(=O)[C@@H](O)[C@H](Cc2ccccc2)NC(=O)[C@@H](NC(=O)[C@@H](NC(C)=O)c2ccccc2)C(C)(C)C)CSC1(C)C)C(=O)N[C@@H](CCSC)C(N)=O | 101 nM | 99% |
| CC(=O)N[C@H](C(=O)N[C@H](C(=O)N[C@@H](Cc1ccccc1)[C@H](O)C(=O)N1CSC(C)(C)C1C(=O)NCc1cccc(I)c1)C(C)(C)C)c1ccccc1 (some centres undefined) | 473 nM | 97% |
| CSCC[C@H](NC(=O)[C@@H](NC(=O)[C@H]1N(C(=O)[C@@H](O)[C@H](Cc2ccccc2)NC(=O)[C@@H](NC(=O)[C@H](CCC(N)=O)NC(=O)[C@@H]2CCCN2)C(C)C)CSC1(C)C)C(C)C)C(=O)N[C@@H](Cc1cnc[nH]1)C(=O)O (H-PQV[X1][Thz(5,5-Me2)]VMH-OH) | 152 nM |  |
| CC[C@H](C)[C@H](NC(C)=O)C(=O)N[C@H](C(=O)N[C@@H](Cc1ccccc1)[C@H](O)C(=O)N1CSC(C)(C)[C@@H]1C(=O)N[C@H](C(=O)N[C@@H](CCSC)C(N)=O)c1ccccc1)[C@@H](C)CC | 123 nM | 86% |
| CC[C@H](C)[C@H](NC(=O)[C@@H](NC(C)=O)C(C)(C)C)C(=O)N[C@@H](Cc1ccccc1)[C@H](O)C(=O)N1CSC(C)(C)[C@@H]1C(=O)N[C@H](C(=O)N[C@@H](CCSC)C(N)=O)[C@@H](C)CC | 201 nM | 98% |
| CSCC[C@H](NC(=O)[C@@H](NC(=O)[C@H]1N(C(=O)[C@@H](O)[C@H](Cc2ccccc2)NC(=O)[C@@H](NC(=O)[C@H](CCC(N)=O)NC(C)=O)C(C)C)CSC1(C)C)C(C)C)C(N)=O (Ac-QV[X1][Thz(5,5-Me2)]VM-NH2) | 353 nM | 96% |
| C=C(C)CNC(=O)C1N(C(=O)[C@@H](O)[C@H](Cc2ccccc2)NC(=O)[C@@H](NC(=O)[C@@H](NC(C)=O)c2ccccc2)C(C)(C)C)CSC1(C)C (some centres undefined) | 140 nM | > 99% |
| CC[C@H](C)[C@H](NC(C)=O)C(=O)N[C@H](C(=O)N[C@@H](Cc1ccccc1)[C@H](O)C(=O)N1CSC(C)(C)[C@@H]1C(=O)N[C@H](C(=O)N[C@@H](C)C(N)=O)[C@@H](C)CC)[C@@H](C)CC | 160 nM | 82% |
| CC(=O)N[C@H](C(=O)N[C@H](C(=O)N[C@@H](Cc1ccccc1)[C@H](O)C(=O)N1CSC(C)(C)C1C(=O)NCC1CC1)C(C)(C)C)c1ccccc1 (some centres undefined) | 146 nM | 99% |
| CC[C@H](C)[C@H](NC(=O)[C@@H]1N(C(=O)[C@@H](O)[C@H](Cc2ccccc2)NC(=O)[C@@H](NC(=O)[C@@H](NC(C)=O)[C@@H](C)CC)[C@@H](C)CC)CSC1(C)C)C(N)=O | 249 nM | 57% |
| CC(=O)N[C@H](C(=O)N[C@H](C(=O)N[C@@H](Cc1ccccc1)[C@H](O)C(=O)N1CSC(C)(C)C1C(=O)NCC(C)(C)C)C(C)(C)C)c1ccccc1 (some centres undefined) | 113 nM | 99% |
| CC[C@H](C)[C@H](NC(=O)[C@@H]1N(C(=O)[C@@H](O)[C@H](Cc2ccccc2)NC(=O)[C@@H](NC(=O)[C@@H](NC(C)=O)c2ccccc2)C(C)(C)C)CSC1(C)C)C(=O)N[C@@H](CCC(N)=O)C(N)=O | 84 nM | 98% |
| CC(=O)N[C@H](C(=O)N[C@H](C(=O)N[C@@H](Cc1ccccc1)[C@H](O)C(=O)N1CSC(C)(C)C1C(=O)NCC(C)C)C(C)(C)C)c1ccccc1 (some centres undefined) | 107 nM | > 99% |
| CC[C@H](C)[C@H](NC(C)=O)C(=O)N[C@H](C(=O)N[C@@H](Cc1ccccc1)[C@H](O)C(=O)N1CSC(C)(C)[C@@H]1C(=O)N[C@H](C(=O)N[C@@H](CCC(N)=O)C(N)=O)[C@@H](C)CC)[C@@H](C)CC | 159 nM | 93% |
| CC[C@H](C)[C@H](NC(C)=O)C(=O)N[C@H](C(=O)N[C@@H](Cc1ccccc1)[C@H](O)C(=O)N1CSC(C)(C)[C@@H]1C(=O)N[C@H](C(=O)N[C@@H](CCSC)C(N)=O)C(C)(C)C)[C@@H](C)CC | 180 nM | 79% |
| CC[C@H](C)[C@H](NC(C)=O)C(=O)N[C@H](C(=O)N[C@@H](Cc1ccccc1)[C@H](O)C(=O)N1CSC(C)(C)[C@@H]1C(=O)N[C@H](C(=O)N[C@@H](CCSC)C(N)=O)[C@@H](C)CC)c1ccccc1 | 320 nM | 88% |
| CSCC[C@H](NC(=O)[C@@H](NC(=O)[C@H]1N(C(=O)[C@@H](O)[C@H](Cc2ccccc2)NC(=O)[C@@H](NC(=O)[C@H](CCC(N)=O)NC(=O)[C@@H]2CCCN2)C(C)C)CSC1(C)C)C(C)C)C(=O)N[C@@H](Cc1c[nH]cn1)C(=O)O (H-PQV[X1][Thz(5,5-Me2)]VMH-OH) |  | 58% |
| CCCNC(=O)C1N(C(=O)[C@@H](O)[C@H](Cc2ccccc2)NC(=O)[C@@H](NC(=O)[C@@H](NC(C)=O)c2ccccc2)C(C)(C)C)CSC1(C)C (some centres undefined) | 193 nM | 98% |
| CC[C@H](C)[C@H](NC(C)=O)C(=O)N[C@H](C(=O)N[C@@H](Cc1ccccc1)[C@H](O)C(=O)N1CSC(C)(C)[C@@H]1C(=O)N[C@H](C(=O)N[C@@H](CCSC)C(N)=O)[C@@H](C)CC)C(C)(C)C | 145 nM | 97% |
| CC[C@H](C)[C@H](NC(C)=O)C(=O)N[C@H](C(=O)N[C@H](Cc1ccccc1)[C@H](O)C(=O)N1CSC(C)(C)[C@@H]1C(=O)N[C@H](C(=O)N[C@@H](CCSC)C(N)=O)[C@@H](C)CC)[C@@H](C)CC | 180 nM | 73% |
| CC(=O)N[C@H](C(=O)N[C@H](C(=O)N[C@@H](Cc1ccccc1)[C@H](O)C(=O)N1CSC(C)(C)C1C(=O)NCc1ccccc1C)C(C)(C)C)c1ccccc1 (some centres undefined) | 103 nM | 99% |
| CC[C@H](C)[C@H](NC(C)=O)C(=O)N[C@H](C(=O)N[C@@H](Cc1ccccc1)[C@H](O)C(=O)N1CSC(C)(C)[C@@H]1C(=O)N[C@H](C(=O)N[C@@H](Cc1ccccc1)C(N)=O)[C@@H](C)CC)[C@@H](C)CC | 95 nM | 98% |
| CC[C@H](C)[C@H](NC(=O)[C@@H](NC(C)=O)c1ccccc1)C(=O)N[C@@H](Cc1ccccc1)[C@H](O)C(=O)N1CSC(C)(C)[C@@H]1C(=O)N[C@H](C(=O)N[C@@H](CCSC)C(N)=O)[C@@H](C)CC | 102 nM | 98% |
| C=CCNC(=O)C1N(C(=O)[C@@H](O)[C@H](Cc2ccccc2)NC(=O)[C@@H](NC(=O)[C@@H](NC(C)=O)c2ccccc2)C(C)(C)C)CSC1(C)C (some centres undefined) | 131 nM | > 99% |
| CC[C@H](C)[C@H](NC(C)=O)C(=O)N[C@@H](Cc1ccccc1)[C@H](O)C(=O)N1CSC(C)(C)[C@@H]1C(=O)N[C@H](C(=O)N[C@@H](CCSC)C(N)=O)[C@@H](C)CC | > 1000 nM | 89% |
